Here are results for one molecule from PMC5855550, “Pharmacokinetic Study of Bioactive Flavonoids in the Traditional Japanese Medicine Keigairengyoto Exerting Antibacterial Effects against Staphylococcus aureus” (International Journal of Molecular Sciences, 2018).

What is called Cmax is the peak of the concentration-time curve. Usually Tmax stands for the time from dosing to the highest level.

One series can be described thus: in vivo. The settings on record: Sprague-Dawley, rat, in vivo, po, 2 g/kg. How it is done: To specifically deconjugate glucuronides, 80 μL of plasma sample was incubated with 50 μL of β-glucuronidase solution containing 200 units/mL β-glucuronidase from Escherichia coli (Sigma-Aldrich) for 2 h at 37 °C. The deconjugation reaction was stopped by adding ethyl acetate or by refrigerating the mixture considering the following procedures. This pretreated solution was injected into the two liquid chromatography–mass spectrometry with tandem mass spectrometry (LC-MS/MS) systems after pooling with an internal standard solution of niflumic acid (Sigma-Aldrich) or atropine (Wako Pure Chemical Industries, Osaka, Japan).
For quantification of apigenin, wogonin, wogonoside, hesperetin, naringenin, liquiritigenin, genistein, and luteolin in β-glucuronidase-naive (untreated) plasma, 200 µL plasma samples were pretreated by liquid-liquid extraction using ethyl acetate. The total supernatant was collected, dried, and concentrated using a centrifugal evaporator. The dried residue was then dissolved in 60 μL of the specific HPLC mobile phase used for each analytical method, and a 10 or 20 μL volume injected into the LC-MS/MS system.
For quantification of baicalin, baicalein, and berberine in untreated plasma, 80 µL of plasma was pretreated by solid-phase extraction using Oasis HLB 96-well µElution plate (Waters, Milford, MA, USA). The methanol eluates were collected, dried, and dissolved in 60 μL of the specific HPLC mobile phase. A 10 or 20 μL volume was then injected into the LC-MS/MS system.
For quantification of glycyrrhizic acid and glycyrrhetinic acid in untreated plasma, 100 µL plasma samples were pretreated by deproteinization using methanol. The supernatant was collected, dried, and concentrated using a centrifugal evaporator. The dried residue was then dissolved in 60 μL of the specific HPLC mobile phase used for the analytical method, and a 10 μL volume injected into the LC-MS/MS system.
For quantification of wogonin, wogonoside, hesperetin, naringenin, liquiritigenin, and genistein in treated plasma, the reaction solutions after deconjugation reactions were pretreated by liquid-liquid extraction. The supernatant was dissolved in 120 μL of the specific HPLC mobile phase, and a 10 or 15 μL volume injected into the LC-MS/MS system.
For quantification of apigenin, luteolin, baicalin, baicalein, and berberine in treated plasma, the reaction solutions after deconjugation were pretreated by solid-phase extraction by the method described above, and 10 or 15 μL of the solution dissolved in 50 μL of the specific HPLC mobile phase was injected into the LC-MS/MS system.
Pharmacokinetic parameters of flavonoids and glucuronide metabolites in KRT-administrated plasma with or without β-glucuronidase treatment were analyzed by noncompartmental modeling using Phoenix WinNonlin (version 6.3, Certara L.P., St. Louis, MO, USA) to determine various pharmacokinetic constants, including Cmax, tmax, t1/2, and AUC0–last. The t1/2 was […] loge2/ke, where ke is the terminal elimination rate constant determined from at least three data points on the descending linear limb.

The subject of the next series is macrophage. Also on record: method as in doi:10.24294/ti.v1.i1.31. Particulars: previous data; cited from earlier work.

In the case of `CC1(C)[C@@H](O)CC[C@]2(C)[C@H]3C(=O)C=C4[C@@H]5C[C@@](C)(C(=O)O)CC[C@]5(C)CC[C@@]4(C)[C@]3(C)CC[C@@H]12` [glycyrrhetinic acid], in the series “in vivo”, the peak level (Cmax) was 121 ng/mL and the Tmax is 6 h. In the series on macrophage, the macrophage phagocytosis-enhancing activity result is listed as “no macrophage phagocytosis-enhancing activity”.
